Test results: US20250116657A1, “HIGH-THROUGHPUT ASSAY FOR CELL MIGRATION, CHEMOTAXIS, AND FUNCTION” (GlaxoSmithKline Intellectual Property Development Limited, priority 2022, published 2025)

B1: ICAM1: Intercellular Adhesion Molecule 1, also known as Cluster of Differentiation 54 (CD54) (protein, UniProt P05362 28-532, looked up)
Intercellular adhesion …: QTSVSPSKVILPRGGSVLVTCSTSCDQPKLLGIETPLPKKELLLPGNNRKVYELSNVQEDSQPMCYSNCPDGQSTAKTFLTVYWTPERVELAPLPSWQPVGKNLTLRCQVEGGAPRANLTVVLLRGEKELKREPAVGEPAEVTTTVLVRRDHHGANFSCRTELDLRPQGLELFENTSAPYQLQTFVLPATPPQLVSPRVLEVDTQGTVVCSLDGLFPVSEAQVHLALGDQRLNPTVTYGNDSFSAKASVSVTAEDEGTQRLTCAVILGNQSQETLQTVTIYSFPAPNVILTKPEVSEGTEVTVKCEAHPRAKVTLNGVPAQPLGPRAQLLLKATPEDNGRSFSCSATLEVAGQLIHKNQTRELRVLYGPRLDERDCPGNWTWPENSQQTPMCQAWGNPLPELKCLKDGTFPLPIGESVTVTRDLEGTYLCRARSTQGEVTRKVTVNVLSPRYEIVIITVVAAAVIMGTAGLSTYLYNRQRKIKKYRLQQAQKGTPMKPNTQATPP

Key:
Assay type in all cases: cell-based
[1] = test system: HT29-GFP colorectal cancer cells; experiment: HT29-GFP colorectal cancer cell killing within ECM-filled 2-lane Mimetas ORGANOPLATE (GFP cell debris image analysis); conditions: 10 μM, 5 days, 7-day old single cell colonies, 750 cells
Procedure: Single cells were seen to be uniformly dispensed across the microfluidic lanes and grew into single cell colonies over time.
2-lane Mimetas ORGANOPLATE® wells harboring 7-day old single cell colonies with either 500 cells or 750 cells were treated with 0 or 10 μM Bortezomib (sold under the brand name Velcade in the United States; CAS 179324-69-7) to observe cell killing within the channel over 5 days.

activated CD3+ T-cells = experiment: Activated CD3+ T-cell chemotaxis through end-to-end collagen-matrigel ECM plug in 2-lane Mimetas ORGANOPLATE; conditions: for lowest concentration with robust chemotaxis response (migration length) compared to blank media control / lowest concentration with significantly higher total number of responding activated T-cells over blank media controls: 10,000 cells, 96 hours; for lowest concentration with robust chemotaxis response (migration length) compared to blank media control: chemokine refreshed at 48 hours; for lowest concentration with significantly higher total number of responding activated T-cells over blank media controls: one-way ANOVA
Procedure: 50 μl of 37° C. warmed 1×PBS were added to wells in columns 3, 7, 11, 15, 19 and 23 observation windows of Mimetas 2-lane ORGANOPLATE® and stored at 4° C. 5 μl of ice-cold 2 mg/ml collagen mixed with 10% (v/v) of low endotoxin matrigel GFR were added to wells in columns 4, 8, 12, 16, 20 and 24 of chilled Mimetas 2-lane ORGANOPLATE® to potentially create aligned collagen fibers within the microfluidic channels. After the ECM filled all the microfluidic channels, 1 μl of ice-cold ECM was quickly added to wells in columns 1, 2, 5, 6, 9, 10, 13, 14, 17, 18, 21, and 22 to allow for contact to be established between the ECM footprints. 4.5 ml of 37° C. warmed ultrapure water was added to both the ends of sterile MicroClime Environmental Lid and placed atop the Mimetas ORGANOPLATE®. The assembly was placed in a humidified 37° C. cell culture incubator for 45 minutes to ensure complete gelation of all the wells throughout the plate and used for the experiment.
After the gelation, 50 μl of blank media was added to the wells of columns 1, 5, 9, 13, 17 and 21 followed by 50 μl of the desired chemokine at different concentrations in wells of columns 4, 8, 12, 16, 20 and 24. 1:1000 (v/v) NUCLIGHT® Rapid Red dye stained and washed activated CD3+ T-cells were quickly added towards the mouth of the channel allowing increased deposition of cells closer to the mouth of the channel in the wells of column 2, 6, 10, 14, 18 and 22 in RPMI media with 0.5% FBS. CD3+ T-cells were activated for 48 hours prior the experiment with 1:500 (v/v) TRANSACT® beads with 20 IU/mL IL2 in RPMI media with 10% FBS. The ORGANOPLATE® was left undisturbed for 3-5 minutes to allow T-cell settling followed by placing them in humidified 37° C. incubator for the duration of the experiment. Chemokines were replaced as needed after 48 and 96 hours along with the 37° C. warmed ultrapure water within the sterile MicroClime Environmental Lid.
Wells from columns 2, 3, 4, 6, 7, 8, 10, 11, 12, 14, 15, 16, 18, 19, 20, 22, 23 and 24 were imaged in the far red and bright field channels at 4× magnification on days 0, 1, 2, 3, 4, 5 and 6 using an INCELL™ 6500 confocal microscope to identify the cells within the migrating channel. Z-stack of six images at different focal planes 50 μm apart spanning the thickness of the microfluidic channel were captured followed by maximum projection to create a singular image of the migratory channel. Images were then transferred to COLUMBUS™ image segmentation software to extract the X-Y location of the migratory CD3+ T-cells within the microfluidic channel. Area cut-offs and positive signal over background were used to accurately identify the fluorescent T-cells over the background.
The X-Y data of the CD3+ T-cells was transferred to SPOTFIRE™ analytics platform for image representation. The X axis location of the migratory T-cells across 4 different replicate wells were pooled and represented as a horizontal violin plot using the GRAPHPAD™ prism. Kruskal-Wallis test for statistical significance was used to understand the significance of a chemokine concentration in driving increased migration distance into the end-to-end solid ECM channel over blank media controls. Replicates were individually compared amongst each other to ensure significance between the sample and replicate and the lowest significance difference was represented in the graph. […]

naive CD3+ T-cells = experiment: Naive CD3+ T-cell chemotaxis through ECM plug in 2-lane Mimetas ORGANOPLATE; conditions: 2.5 μM CXCR3 agonist
Procedure: Nuclight rapid red dye stained naive CD3+ T-cells were added closer to the mouth of the channel at the one end (well/frame 2 (102) of extracellular matrix (2 mg/mL collagen+10% (v/v) Matrigel GFR) filled within 2-lane Mimetas ORGANOPLATE®) to evaluate chemotaxis in response to the small molecule agonist applied to other end of the extracellular matrix plug (well/frame 4 (104)). Well/frame 1 (101) was filled with blank media. […] In order to enhance the adhesion of naïve T-cells to the extracellular matrix, 1 μg/mL of ICAM1 (Intercellular Adhesion Molecule 1, also known as Cluster of Differentiation 54 (CD54)) was also spiked into well/frame 2 of the assay system along with the T-cells. Chemotaxis potential was measured via confocal microscopy, identifying the number of naïve T-cells under migration in response to the chemokine gradient generated within the extracellular matrix.

| Molecule | lowest concentration with robust chemotaxis response (migration length) compared to blank media control (activated CD3+ T-cells) [nM] | lowest concentration with significantly higher total number of responding activated T-cells over blank media controls (activated CD3+ T-cells) [nM] | other results |
| --- | --- | --- | --- |
| CC(C)C[C@H](NC(=O)[C@H](Cc1ccccc1)NC(=O)c1cnccn1)B(O)O [Bortezomib] | – | – | number of GFP cell debris aggregates (cell killing) versus 0 μM [1]: statistically significant increase |
| CXCL10: recombinant chemokine, R&D Systems catalog 266-IP | 37.5 | 150 | – |
| CXCL12: recombinant chemokine, R&D Systems catalog 350-NS | 37.5 | 18.75 | chemotaxis of activated CD3+ T-cells compared to 0 nM (activated CD3+ T-cells; 300 nM, 120 hours, cells in well 2, media in well 1, chemokine in well 4, refreshed after 48 hours): significantly higher chemotaxis |
| B1 | – | – | effect of addition on number of naive T-cells responding to the chemokine gradient (naive CD3+ T-cells; 1 μg/mL in well 2, 35000 cells): did not influence; impact of inclusion on chemotaxis outcome (naive CD3+ T-cells; 1 μg/mL in well 2, higher naive T-cell numbers (100,000-150,000)): non-significant impact |
